Measured values as given in patent US6020121A (priority 1996, dated 2000).
“Also recorded” adds a separate entry of the source. Where a SMILES comes first, the peptide text is derived from it. The star is where a group is joined. Cbz = O=C(OCc1ccccc1)*; Bz = O=C(c1ccccc1)*

Key:
protein A = test: Protein A expression immunoblot; type: cell-based, Staphylococcus aureus; conditions: Table 4; relative to Agr- mutant cells
Procedure: FIG. 18. Immunodetection of staphylococcal protein A in treated and untreated cultures. Cells were grown in presence of compounds 1, 2, or 3 to a similar density (O.D. 600 nm--0.5-0.6). Cells were lysed using lysostaphin prior to separation of cell surface proteins by SDS-PAGE. After electrophoretic transfer of proteins from the gel onto a nitrocellulose membrane, detection of protein A on the blot was possible by using a specific anti-protein A antibody and a second antibody that allowed chemiluminescent detection of immune complexes. The chemiluminescence was captured by autoradiography.
Protein A. Protein A expression is assayed by immunoblots of SDS-Page separated total cell proteins (Patel et al., Infection and Immunity 55:3103-3110 (1987)).

RNAIII [1] = test: RNAIII Northern Blot
Agr P3 promoter = test: Agr P3-β-lactamase fusion screen: β-lactamase activity; conditions: for Status from algorithm: Table 3; for β-Lactamase inhibition: corrected for cell density, screen at 10 μg/ml final, 6 hours, 35° C., negative = induction; for Behaviour in the P3-β-lactamase screen (in words): text
[2] = test system: Staphylococcus aureus strain 8325-4/pMP25; test: Growth in presence of test compounds in the Agr screen; conditions: compared to untreated Agr+ cells; screen at 10 μg/ml final, 6 hours, 35° C.
[3] = test system: B. subtilis strain 168 sporulation; test: Sporulation; type: cell-based, Bacillus subtilis; conditions: B. subtilis strain 168, compared to untreated controls
Excerpt: Sporulation: Sporulation is a well-characterized event in many organisms, including Bacillus subtilis (spoIIJ/spo0A or spoIIJ/spo0F, Losick et al., Annu. Rev. Genet. 20:625-669 (1986); Smith, The initiation of sporulation,pp. 185-210, In I. Smith et al. eds., Regulation of procaryotic development, American Society for Microbiology, Washington, D.C. (1989)). It can be induced in various media (Leighton and Doi, J. Biol. Chem. 246:3189-3195 (1971); Piggot and Curtis, J. Bacteriol. 169:1260-1266 (1987)), and can be easily assayed (Nicholson and Setlow, Sporulation, germination, and outgrowth, pp. 391-429, In C. R. Harwood and S. M. Cutting eds., Molecular biological methods for Bacillus, John Wiley and Sons, Ltd., Chichester, West Sussex, England (1990)). Briefly, by heating the cells to 80-85° C. for 15-20 min, undifferentiated cells are killed while spores survive. Therefore, by determining the difference in viable cell count of control cultures versus heat treated cultures, it is possible to calculate the percent sporulation for a given culture or condition. Compounds that inhibit the signal transduction system responsible for the induction of sporulation will lower the viable cell count of the heat treated culture.

alpha-hemolysin = type: cell-based, Staphylococcus aureus
Staphylococcus aureus = test: Mucin-enhanced murine peritonitis model; type: in vivo, mice (Balb/c); conditions: challenge dose of 10^10 cfu; 3.15 mg/kg
[4] = test system: S. typhimurium chemotaxis; test: Chemotaxis (swarm agar plates); type: cell-based, Salmonella typhimurium; conditions: S. typhimurium on ribose-containing swarm agar plates
Excerpt: Chemotaxis: Motility has been studied in a variety of bacteria. The molecular mechanisms of motility have been best characterized in E. coli and S. typhimurium but analogs of the molecular components have been detected in both Gram-negative and Gram-positive organisms (Morgan et al., J. Bacteriol. 175:133-140 (1993)). A two-component regulatory system composed of either cheA/cheY or cheA/cheB (Stewart and Dahlquist, Chem. Rev. 87:997-1025 (1987); MacNab, Motility and Chemotaxis, pp. 732-759, In F. C. Neidhardt, et al., ed., Escherichia coli and Salmonella typhimurium: cellular and molecular biology, American Society for Microbiology, Washington, D.C. (1987)), is central to the ability of these organisms to detect and respond appropriately to chemical substances. Such response can be detected on minimal swarm agar plates containing a chemoattractant (sugars or amino acids) (J. S. Parkinson, J. Bacteriol. 126:758-770 (1976)), or a capillary assay system, in which chemoattractant is placed in a capillary tube and immersed in a liquid bacterial culture. Bacteria capable of chemotaxis will swim into the capillary and can be detected by performing viable cell counts (Adler, J. Gen. Microbiol. 74:77-91 (1973)). […]

RNAIII [5] = test: RNAIII Northern Blot in clinical strains; type: cell-based, Staphylococcus aureus; conditions: several clinical strains of S. aureus (no. 212, 213, 215, and 217), FIG. 20
Excerpt: FIG. 20. Northern Blots for RNAIII detection in several clinical strains of S. aureus (no. 212, 213, 215, and 217) grown in the presence of Compound 10. Untreated strain 8325-4 (Agr+) is also represented and acts as a control to show the maximal amounts of RNAIII also detected in all clinical strains grown without the test compound.

| Structure (SMILES) | Status from algorithm (Agr P3 promoter) | β-Lactamase inhibition (Agr P3 promoter) | Growth [2] | also measured |
| --- | --- | --- | --- | --- |
| CC(=O)OC1CCC2(C)C(CCC3C4CC5OC6(CCC(C)CO6)C(C)C5C(C)=C4CC32)C1 (stereo not shown) [Compound 6] | GR and Inducer | -111% | 72% | Protein A expression (protein A): [+]; RNAIII production (in words) (RNAIII [1]; FIGS. 14 and 15): allowed overexpression of RNAIII; RNAIII production (in words) (RNAIII [1]; FIGS. 14 and 15, listed as compound 6): marked increase in RNAIII; Behaviour in the P3-β-lactamase screen (in words) (Agr P3 promoter): enhance the production of β-lactamase; also recorded: showed inducer rather than inhibitor activity; Behaviour in the P3-β-lactamase screen (in words) (Agr P3 promoter; listed as compound 6): increased activity of the β-lactamase reporter |
| Cc1ccc(NN=C(C#N)C(=O)c2cc(C)nn2C(C)(C)C)cc1 [Compound 13] | Active | 75% | 111% | – |
| CCCCCCCCCCCC(=O)OCC(O)CO (stereo not shown) [GML, Glycerol monolaureate, reference compound] | – | – | – | RNAIII production (in words) (RNAIII [1]; FIGS. 14 and 15): showed no effect on RNAIII; also recorded: has no effect on RNAIII production; Behaviour in the P3-β-lactamase screen (in words) (Agr P3 promoter): did not qualify as a hit in the screen |
| O=S(=O)(Nc1cc(C(F)(F)F)cc(C(F)(F)F)c1)c1cccc2nsnc12 [Compound 14] | Active | 77% | 94% | decrease in percent sporulation [3]: more than 50% |
| CN[C@H](CC(C)C)C(=O)N[C@H]1C(=O)N[C@@H](CC(N)=O)C(=O)N[C@H]2C(=O)N[C@H]3C(=O)N[C@H](C(=O)N[C@H](C(=O)O)c4cc(O)cc(O)c4-c4cc3ccc4O)[C@H](O)c3ccc(c(Cl)c3)Oc3cc2cc(c3O[C@@H]2O[C@H](CO)[C@@H](O)[C@H](O)[C@H]2O[C@H]2C[C@](C)(N)[C@H](O)[C@H](C)O2)Oc2ccc(cc2Cl)[C@H]1O [vancomycin] | – | – | – | alpha-hemolysin activity (in words) (alpha-hemolysin): did not inhibit alpha-hemolysin activity; treatment of infection (in words) (Staphylococcus aureus): treatable; Behaviour in the P3-β-lactamase screen (in words) (Agr P3 promoter): do not behave as hits |
| O=C1OC(c2cccnc2Sc2ccc(Cl)cc2)=NC1=Cc1ccc(C(F)(F)F)cc1 [Compound 18] | Active | 75% | 89% | – |
| CC(CS)=NOC(=O)c1c(-c2ccccc2)noc1C [Compound 11] | Active | 77% | 104% | chemotaxis effect (in words) [4]: deregulated chemotaxis and enhanced swarm diameters of S. typhimurium; also recorded: not a chemi-attractant or -repellant itself |
| C=C(C)C=CCC1C(C)(O)CCC2C(C)(C)CCCC21C (stereo not shown) [Compound 1] | Active | 75% | 105% | – |
| Cc1cc(C(F)(F)F)cc(N(C)NC2OC(=O)c3ccccc32)n1 (stereo not shown) [Compound 12] | Active | 76% | 124% | – |
| C=C1C(=O)OC2CC1C(OC(C)=O)CC(C)=CCCC(C)=CCCC2(C)O (stereo not shown) [Compound 15] | Active | 76% | 101% | – |
| CC(C)CC(NC(=O)c1ccccc1)C(=O)NC(Cc1ccc(O)cc1)C(N)=O (stereo not drawn) [Compound 8] (Bz-Leu-Tyr-NH2; configuration not given here) | Active | 84% | 101% | – |
| O=C(O)/C=C/c1ccc(Sc2ccc(Br)cc2)c([N+](=O)[O-])c1 [Compound 16] | Active | 78% | 106% | – |
| CCCc1c(C(=O)Nc2cccc(C(F)(F)F)c2)cnn1-c1ccccc1 [Compound 9] | Active | 86% | 91% | – |
| CC(C)CC(NC(=O)OCc1ccccc1)C(=O)NC(Cc1ccc(O)cc1)C(N)=O (stereo not drawn) [Compound 7] (Cbz-Leu-Tyr-NH2; configuration not given here) | Active | 87% | 103% | – |
| CN(C)/C=C/C(=O)c1sc(SCc2ccc(Cl)cc2)c2c1CC(C)(C)CC2=O [Compound 17] | Active | 83% | 87% | – |
| CC(=O)OC1CC2C(C)(C)CCCC2(C)C2CCC3(C)C(=CC(=O)OC3c3ccoc3)C12C (stereo not shown) [Compound 3] | GR and Active | 83% | 70% | decrease in percent sporulation [3]: more than 50% |
| O=C(O)c1cn(C2CC2)c2cc(N3CCNCC3)c(F)cc2c1=O [ciprofloxacin, reference compound] | – | – | – | alpha-hemolysin activity (in words) (alpha-hemolysin): did not inhibit alpha-hemolysin activity; Behaviour in the P3-β-lactamase screen (in words) (Agr P3 promoter): do not behave as hits |
| CC(=O)OC1CCC2(C)C(CC(=O)C3(C)C2CCC2(C)C(c4ccoc4)OC(=O)C4OC423)C1(C)C (stereo not shown) [Compound 2] | Active | 84% | 122% | – |
| O=C(Nc1ccccc1)OC(Cc1ccccc1)C(F)(F)F (stereo not shown) [Compound 10] | Active | 84% | 107% | RNAIII expression in clinical strains (in words) (RNAIII [5]): greatly reduced |
